Relative activity data for four compounds are collected here from ChEMBL document CHEMBL1132801, “NMR analysis of tautomerisms of active pinacidil-type potassium channel openers and a less active one” (2000).

The structures appear in SMILES notation.

This experiment has as its system Canis familiaris. The experiment can be described thus: The compound was tested for its antihypertensive activity in dogs after intravenous injection. The experiment is classed as functional, Canis lupus familiaris.
For the compound `CCC(C)(C)/N=C(\NC#N)Nc1cc(Cl)cc(C#N)c1`, the Relative activity was 2.04.

In turn, `CC(N/C(=C\[N+](=O)[O-])Nc1ccccc1)C(C)(C)C` (centres undefined) displayed a Relative activity of 1.82.

Consider `CCC(C)(C)N/C(=C\C#N)Nc1cc(Cl)cc(C#N)c1`, for which the Relative activity is reported as <0.3.

On to `CC(N/C(=N\C#N)Nc1ccncc1)C(C)(C)C` (centres undefined) [PINACIDIL ANHYDROUS], for which the Relative activity is 1.
